Results published in paper PMC5814047, “Peptidic inhibitors of insulin-degrading enzyme with potential for dermatological applications discovered via phage display” (PLoS ONE, 2018).
Several values for one entry are separate records, joined by “and”; a condition that tells them apart may be missing. Equal values may be shown once. Ends that are not written are not given here.

What was measured:
MMP-7 = biological target: T1, MMP-7 (Homo sapiens, UniProt P09237); assay: MMP Inhibitor Profiling Kit, MMP-7; format: biochemical; settings: MMP-7
T1 construct: purchased Enzo Life Sciences, Inc
T1 sequence (P09237 95-267): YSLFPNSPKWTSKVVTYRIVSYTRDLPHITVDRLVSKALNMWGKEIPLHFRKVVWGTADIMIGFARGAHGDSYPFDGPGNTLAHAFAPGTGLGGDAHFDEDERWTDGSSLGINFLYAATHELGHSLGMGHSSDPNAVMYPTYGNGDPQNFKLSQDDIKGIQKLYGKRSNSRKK
Description: IDE activity was quantified by monitoring the degradation of Mca-[…](Dnp) (FRET1, 5 μM), fluoresceinated and biotinylated amyloid ß-protein (FAßB; 500 nM) or recombinant human insulin (50 nM) in PBS supplemented with 0.05% BSA. FRET1 degradation was measured by changes in fluorescence (λex = 340 nm, λem = 420 nm); FAßB degradation was monitored by fluorescence polarization (λex = 488 nm, λem = 525 nm), as described; and insulin degradation was quantified by ELISA. In vitro activity assays incorporated recombinant human IDE (1 nM) purified from bacteria. For quantitation of insulin degradation in primary murine skin fibroblasts, cells (1 x 10^5/well) were plated in 96-well plates and maintained in DMEM supplemented with 10% fetal bovine serum (FBS), 2mM glutamine, penicillin and streptomycin. After addition of insulin (10 nM or 100 nM), samples of conditioned medium were removed daily and quickly frozen, then insulin levels were quantified in parallel by ELISA according to manufacturer’s recommendations (Crystal Chem, Downers Grove, IL, USA). Assessment of the activity of P12-3A against a variety of matrix-metalloproteases was conducted using the Matrix Metalloproteinase (MMP) Inhibitor Profiling Kit, Fluorometric RED (Enzo Life Sciences, Inc., Farmingdale, NY, USA) according to manufacturer’s recommendations using the broad-spectrum MMP inhibitor, NNGH, as a positive control. […]

[1] = system: multiple matrix-metalloproteases (MMPs); assay: Matrix Metalloproteinase (MMP) Inhibitor Profiling Kit, Fluorometric RED; format: biochemical; design: % activity relative to DMSO-only controls, single runs / % activity relative to DMSO-only controls, Mean: concentration or dose not given beside the values
Description: (§1) IDE activity was quantified by monitoring the degradation of Mca-[…](Dnp) (FRET1, 5 μM), fluoresceinated and biotinylated amyloid ß-protein (FAßB; 500 nM) or recombinant human insulin (50 nM) in PBS supplemented with 0.05% BSA. FRET1 degradation was measured by changes in fluorescence (λex = 340 nm, λem = 420 nm); FAßB degradation was monitored by fluorescence polarization (λex = 488 nm, λem = 525 nm), as described; and insulin degradation was quantified by ELISA. In vitro activity assays incorporated recombinant human IDE (1 nM) purified from bacteria. For quantitation of insulin degradation in primary murine skin fibroblasts, cells (1 x 10^5/well) were plated in 96-well plates and maintained in DMEM supplemented with 10% fetal bovine serum (FBS), 2mM glutamine, penicillin and streptomycin. After addition of insulin (10 nM or 100 nM), samples of conditioned medium were removed daily and quickly frozen, then insulin levels were quantified in parallel by ELISA according to manufacturer’s recommendations (Crystal Chem, Downers Grove, IL, USA). Assessment of the activity of P12-3A against a variety of matrix-metalloproteases was conducted using the Matrix Metalloproteinase (MMP) Inhibitor Profiling Kit, Fluorometric RED (Enzo Life Sciences, Inc., Farmingdale, NY, USA) according to manufacturer’s recommendations using the broad-spectrum MMP inhibitor, NNGH, as a positive control.
Supplementary file pone.0193101.s004.tif: S4 Fig Selectivity of P12-3A for IDE vis-à-vis other proteases. Activity of P12-3A (100 μM) against (A) multiple matrix-metalloproteases (MMPs) and (B) multiple peptidases of different protease classes. […] Data are mean ± SD, n = 8–16 per group. P<0.05 by 2-tailed Student’s t-test. […] See Materials and Methods for details. NEP, neprilysin; mCatD, murine cathepsin D; hCatD, human cathepsin D. (TIF) Click here for additional data file.

IDE [2] = biological target: T2, IDE (Homo sapiens, UniProt P14735); assay: Vulnerability of peptides to degradation by IDE: 0 vs 4 h pre-incubation, then FRET1 assay; format: biochemical; settings: 4-hr incubation; for IC50: FRET1 assay
T2 construct: made in house; host or cells: bacteria
T2 sequence (P14735 1-1019): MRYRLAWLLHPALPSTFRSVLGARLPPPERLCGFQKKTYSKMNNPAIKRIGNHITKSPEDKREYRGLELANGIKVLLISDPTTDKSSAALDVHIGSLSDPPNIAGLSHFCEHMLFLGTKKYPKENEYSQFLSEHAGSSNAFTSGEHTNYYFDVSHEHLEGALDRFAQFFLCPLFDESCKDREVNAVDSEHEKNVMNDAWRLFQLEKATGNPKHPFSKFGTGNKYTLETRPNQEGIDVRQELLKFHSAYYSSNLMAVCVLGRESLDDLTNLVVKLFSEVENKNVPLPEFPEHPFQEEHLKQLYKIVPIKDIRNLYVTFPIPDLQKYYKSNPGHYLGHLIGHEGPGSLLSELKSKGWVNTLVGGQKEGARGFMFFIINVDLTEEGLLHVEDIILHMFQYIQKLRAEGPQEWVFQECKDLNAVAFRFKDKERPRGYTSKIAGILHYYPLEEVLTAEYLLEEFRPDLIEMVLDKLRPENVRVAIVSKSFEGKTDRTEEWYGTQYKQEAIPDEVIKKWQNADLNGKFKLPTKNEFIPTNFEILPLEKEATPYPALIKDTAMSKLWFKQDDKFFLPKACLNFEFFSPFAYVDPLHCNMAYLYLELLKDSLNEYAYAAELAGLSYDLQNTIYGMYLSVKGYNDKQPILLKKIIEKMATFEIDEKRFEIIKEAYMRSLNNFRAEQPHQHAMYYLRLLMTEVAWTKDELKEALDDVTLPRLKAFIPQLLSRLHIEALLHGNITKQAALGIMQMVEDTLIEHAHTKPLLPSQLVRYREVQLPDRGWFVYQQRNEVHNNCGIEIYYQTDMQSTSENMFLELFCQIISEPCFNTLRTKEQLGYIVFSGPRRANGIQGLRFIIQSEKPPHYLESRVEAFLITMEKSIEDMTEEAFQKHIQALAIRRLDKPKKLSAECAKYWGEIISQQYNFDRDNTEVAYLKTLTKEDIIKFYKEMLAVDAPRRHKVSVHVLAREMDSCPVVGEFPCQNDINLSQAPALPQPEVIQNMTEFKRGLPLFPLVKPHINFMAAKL
Description: (§2) IDE activity was quantified by monitoring the degradation of Mca-[…](Dnp) (FRET1, 5 μM), fluoresceinated and biotinylated amyloid ß-protein (FAßB; 500 nM) or recombinant human insulin (50 nM) in PBS supplemented with 0.05% BSA. […] In vitro activity assays incorporated recombinant human IDE (1 nM) purified from bacteria. For quantitation of insulin degradation in primary murine skin fibroblasts, cells (1 x 10^5/well) were plated in 96-well plates and maintained in DMEM supplemented with 10% fetal bovine serum (FBS), 2mM glutamine, penicillin and streptomycin. After addition of insulin (10 nM or 100 nM), samples of conditioned medium were removed daily and quickly frozen, then insulin levels were quantified in parallel by ELISA according to manufacturer’s recommendations (Crystal Chem, Downers Grove, IL, USA). Assessment of the activity of P12-3A against a variety of matrix-metalloproteases was conducted using the Matrix Metalloproteinase (MMP) Inhibitor Profiling Kit, Fluorometric RED (Enzo Life Sciences, Inc., Farmingdale, NY, USA) according to manufacturer’s recommendations using the broad-spectrum MMP inhibitor, NNGH, as a positive control.

IDE [3] = biological target: T2, IDE; assay: biochemical; settings: for IC50: insulin ELISA assay, dose-response
Source text: The six selected peptide sequences (C7C-1, C7C-2, 12–1, 12–2, 12–3 and 12–4) were synthesized, together with a variety of modifications, yielding a total of 25 peptides (Table 1). For the 12-mer peptides, we synthesized variants of the parent peptides truncated at one or both termini, to test whether the entire sequence was necessary or not, in the hope that shorter, and thus less expensive, sequences might be effective. Other modifications included N-terminal acetylation and C-terminal amidation, included to mimic the charge state of the peptides when incorporated in the phage coat protein (Table 1). To assess the extent to which these peptide sequences inhibit IDE, we quantified their potency in protease activity assays using recombinant human IDE and two different substrates: FRET1, a fluorogenic peptide, and recombinant human insulin.
as §1

IDE [4] = biological target: T2, IDE; assay: biochemical; settings: for IC50: dose-response, FRET1
Description: The six selected peptide sequences (C7C-1, C7C-2, 12–1, 12–2, 12–3 and 12–4) were synthesized, together with a variety of modifications, yielding a total of 25 peptides (Table 1). […] Other modifications included N-terminal acetylation and C-terminal amidation, included to mimic the charge state of the peptides when incorporated in the phage coat protein (Table 1).
as §2

Compound: COc1ccc(S(=O)(=O)N(CC(=O)NO)CC(C)C)cc1 [NNGH, reference compound]
- % activity relative to DMSO-only controls, Mean (MMP-7): 49.4%
- % activity relative to DMSO-only controls, Mean ([1]; MMP-1): 1.0%
- % activity relative to DMSO-only controls, Mean ([1]; MMP-2): 0.122%
- % activity relative to DMSO-only controls, Mean ([1]; MMP-3): -1.2%
- % activity relative to DMSO-only controls, Mean ([1]; MMP-8): 5.1%
- % activity relative to DMSO-only controls, Mean ([1]; MMP-9): 4.0%
- % activity relative to DMSO-only controls, Mean ([1]; MMP-12): 1.9%
- % activity relative to DMSO-only controls, Mean ([1]; MMP-13): 6.5%
- % activity relative to DMSO-only controls, Mean ([1]; MMP-14): 24%
- % activity relative to DMSO-only controls, Mean ([1]; MMP-19): 38%
- inhibition by positive control, MMPs ([1]; NNGH positive control, P< 0.01): significant inhibition

Compound: WSPISGKFFQRF-NH2 [P12-4A]
- Ki (IDE [2]; Cheng-Prusoff from IC50, FRET1 KM 10 uM, substrate 5 uM): 43.5 µM
- remaining activity at 0.12207 µM (IDE [2]; 4 h, Cmpd 0.12207 uM, relative to DMSO-only controls, individual runs, read-out: Percent Activity (normalized initial velocity of FRET1 hydrolysis)): 78.9%
- remaining activity at 0.488281 µM (IDE [2]; 4 h, Cmpd 0.488281 uM, relative to DMSO-only controls, individual runs, read-out: Percent Activity (normalized initial velocity of FRET1 hydrolysis)): 81.8%
- remaining activity at 1.95312 µM (IDE [2]; 4 h, Cmpd 1.95312 uM, relative to DMSO-only controls, individual runs, read-out: Percent Activity (normalized initial velocity of FRET1 hydrolysis)): 85.3%
- remaining activity at 7.8125 µM (IDE [2]; 4 h, Cmpd 7.8125 uM, relative to DMSO-only controls, individual runs, read-out: Percent Activity (normalized initial velocity of FRET1 hydrolysis)): 83.2%
- remaining activity at 31.25 µM (IDE [2]; 4 h, Cmpd 31.25 uM, relative to DMSO-only controls, individual runs, read-out: Percent Activity (normalized initial velocity of FRET1 hydrolysis)): 35.7%
- remaining activity at 125 µM (IDE [2]; 4 h, Cmpd 125 uM, relative to DMSO-only controls, individual runs, read-out: Percent Activity (normalized initial velocity of FRET1 hydrolysis)): 51.3%
- remaining activity at 500 µM (IDE [2]; 4 h, Cmpd 500 uM, relative to DMSO-only controls, individual runs, read-out: Percent Activity (normalized initial velocity of FRET1 hydrolysis)): 27.1%
- IC50 (IDE [2]; individual replicates, read-out: IC50s): 63.7 µM and 66.6 µM
- IC50 (IDE [2]; mean of 2 replicates, read-out: IC50s, Mean): 65.2 µM
- IC50 <10 uM? (IDE [3]; initial test at 10 uM using insulin (100 nM)): YES
- IC50 (IDE [3]; Replicates 1-3, read-out: IC50s, individual replicates): 6.44 µM and 6.45 µM and 2.48 µM
- IC50 (IDE [3]; N=3, read-out: IC50s, Mean): 5.12 µM
- Ki (IDE [3]; substrate recombinant human insulin 50 nM, Ki from IC50 with the Cheng-Prusoff equation): 2.6 ± 0.7 µM
- Ki (IDE [4]; Cheng-Prusoff, KM 10 uM, substrate concentration 5 uM, read-out: Ki values, Mean): 4.25 µM
- IC50 (IDE [4]; individual runs, read-out: IC50s, Run 1-6): 6.41 µM and 2.96 µM and 9.75 µM
- IC50 (IDE [4]; read-out: IC50s, Mean): 6.37 µM
- IC50 <500 uM? (IDE [4]; initial test at 500 uM): YES
- remaining activity at 500 µM (IDE [4]; judged as IC50 <100 uM?, individual replicates, read-out: Percent activity at 500 uM, Replicate 1-4): 17.7%
- Ki (IDE [4]; substrate FRET1 5 μM, Ki from IC50 with the Cheng-Prusoff equation, read-out: Ki FRET1): 4.2 ± 1.3 µM
